Results published in US8299083B2, “PDE5 inhibitor compositions and methods for treating cardiac indications” (The Johns Hopkins University, priority 2004, dated 2012).
Values joined by “and” are separate entries in the source; they are usually repeats but may differ in a detail not shown here. Identical values can stand only once. Like-named read-outs stand apart in the source and are kept apart here.

Key:
[1] = test system: healthy human volunteers, dobutamine-stimulated cardiac function; assay: Dobutamine stress test before and after oral study drug, randomized double-blind placebo-controlled; assay type: in vivo
Description: Forty healthy volunteers were recruited from the general population in response to advertisements posted in the surrounding community. Subjects were screened by medical history, physical examination, and transthoracic echocardiogram. Individuals with heart disease, atherosclerosis, hypertension, diabetes mellitus, pulmonary hypertension, renal or hepatic disease, smoking, pregnancy, or under treatment with nitrates, adrenergic-blocking drugs, or medicines known to interfere with sildenafil pharmacokinetics were excluded. […] All subjects were instructed to fast for >6 hours prior to study. […] Intravenous dobutamine (5 μg/kg/min) was then administered for 5 minutes to achieve a stable response, and measurements repeated (D1). Dobutamine was discontinued, and 15 minutes provided to return to the baseline state. […] Data were again recorded for a second baseline (B2), and during a second dobutamine infusion (D2) using the identical protocol as for the first test. Systolic function was determined by cardiac-specific indexes that combined measurements of pressure, dimension, and flow. Arterial pressure was determined by an oscillometric arm cuff ([…] 2-dimensional echo-Doppler measurements by an Agilent Sonos 5500 (Philips, The Netherlands) employing a 3 MHz probe. All echo-Doppler measurements were digitally acquired to optical disc and analyzed offline by a single blinded investigator. Each measurement reflected the average of at least 3 separate beats. Aortic flow was equal to the velocity time-integral from pulse-wave Doppler in the left ventricular outflow tract multiplied by cross sectional […].^83 Stroke volume, peak, and mean flow were determined from this waveform. Cardiac output was the product of heart rate and stroke volume. Systemic vascular resistance was the ratio of mean arterial pressure (1⁄3 pulse pressure+diastolic blood pressure) to cardiac output. Cardiac contractility was assessed by several load-independent indexes. […] Load-independent secondary outcome contractility parameters were mean ventricular power index and the end-systolic pressure/volume ratio, an approximation for ventricular end systolic elastance. Other secondary outcome variables included routine measures of cardiac systolic and diastolic function. Ejection fraction was determined from cardiac end-diastolic and systolic volumes determined by Simpson's method using apical 4- and 2-chamber views. End-diastolic volume was equal to stroke volume (from Doppler) divided by ejection fraction, with end-systolic volume equal to the difference of the former and latter. Pulse-wave Doppler spectra of transmittal inflow and tissue Doppler imaging of the lateral mitral annular (E') velocities were used to assess diastolic function.^89 The ratio of E/E' was determined as a surrogate marker of left ventricular filling pressures as previously validated^90. Isovolumic relaxation time was measured by continuous wave Doppler as the time between aortic flow cessation and onset of mitral inflow. All statistical analysis was performed using Systat® software. Results are expressed as mean±standard deviation. […] The primary test was a test between group analysis of whether sildenafil (versus placebo) altered the disparity between the first and second dobutamine response, and determined by a three-way interaction term that included each grouping factor. […] Within group analysis was also performed using a 2-tailed Student's paired t-test to assess individual dobutamine responses ([…]2), and a 2-way ANOVA to test whether study drug altered this response within in each group. Categorical variables were compared using the Chi-squared test.

cGMP = cGMP FRET imaging in neonatal rat myocytes; assay type: cell-based
Procedure: Ventricular myocytes from 1-2 days old Sprague Dawley rats (CharlesRiver Lab, MA) were prepared and transfected with the vector carrying the cGMP sensor cygnet-2.1^77 in which EYFP was substituted with the less pH sensitive variant citrine^89, and imaged eighteen-twenty-four hours after transfection as described^90. Images (50-80 ms exposure) were acquired every 10 seconds using custom software and processed by Imagej (NIH, MD). FRET was the change in 480 nm/545 nm emission intensities (ΔR) upon 430 nm excitation^91 expressed as percent change over the basal intensity (R0). Cells were bathed in HEPES buffered Ringer's modified saline (1 mmol/L CaCl2), at room temperature (20-22° C.).

PKG-1 = PKG-1 activity in isolated adult myocytes; assay type: cell-based, mouse; set-up: concentration or dose not given beside the values
Procedure: After 10 min, cells were lysed and PKG-1 activity determined.

ERK1/2 = ERK1/2 activation in TAC hearts (Western blot); assay type: in vivo, mouse
Procedure: Protein was prepared from snap-frozen heart tissue using extraction buffer as described previously^90. Antibodies included calcineurin (1:2000 dilution, BD Transduction Laboratories (San Diego, Calif.), GSK3β, Ser9-phospho-GSK313, Akt, Ser473-phospho-Akt, ERK, Thr202/Thr204-phospho-ERK (1:1000 dilution, Cell Signaling Technology, Beverly, Mass.). Primary antibody binding was visualized by horse radish peroxidase-conjugated secondary antibodies and enhanced chemiluminescence (Pierce, Rockford, Ill.).

[2] = test system: total cGMP-esterase activity; assay: cGMP-esterase (low Km cGMP phosphodiesterase) activity of heart and isolated myocytes; assay type: biochemical, mouse
RhoA, ROCK1 and ROCK2 = assay: RhoA and Rho kinase expression and activity in TAC hearts; assay type: in vivo, mouse; conditions: 3 weeks TAC
Procedure: RhoA activity assay was performed by immunoprecipitation using a commercially available immobilized antibody (SEIZE X IP, Pierce Biotechnology, IL). The antibody used was a rabbit polyclonal antibody raised against RboA (Upstate, NY [1:2500]) and subsequent commercial activity assay according to manufacturer's specification (Upstate Biotechnology, NY).
Protein lysates from whole myocardium and isolated cardiac myocytes were obtained using lysis buffer (Cell Signaling Technology, Beverly, Mass.) with mini-protease inhibitor (Roche, Ind.) and 5% Triton (Sigma Chemical (St. Louis, Mo.). Following 12,000 g centrifugation for 30 minutes, protein was quantified (Pierce Rockford, Ill.), NUPage LDS sample buffer added (Biorad, Hercules, Calif.), and lysates electrophoresed on NuPAGE 4-12% Bis-Tris polyacrylamide gels (Invitrogen, San Diego, Calif.). Membranes were incubated with rabbit polyclonal antibodies raised against ROCK1 or ROCK2 (Cell Signaling Technology, Beverly, Mass.) [1:3,000].

[3] = dobutamine-induced change after sildenafil
[4] = resting baseline after vs before 100 mg oral sildenafil
[5] = second versus initial dobutamine response
[6] = inhibitor combined with isoproterenol

- proportion of total cGMP-esterase activity attributable to PDE5 ([2]; 3 week TAC hearts): ~60%
- PDE5A-dependent cGMP-esterase activity by radio-enzyme assay ([2]; NTG, n=9): 32±17.3%
- percent of total cGMP-esterase activity blocked by co-incubation ([2]; sham control hearts (baseline)): approximately 30%
SMILES: CCCc1nn(C)c2c(=O)[nH]c(-c3cc(S(=O)(=O)N4CCN(C)CC4)ccc3OCC)nc12 [sildenafil]
- dobutamine-induced change in ventricular end-systolic elastance ([1]; after sildenafil 100 mg oral): 0.84±0.9 mmHg/ml
- dobutamine-induced increase in ejection fraction (absolute change) ([1]; after sildenafil 100 mg oral): 4±5%
- dobutamine-induced increase in heart rate ([1]; after sildenafil 100 mg oral): +14.5±4.7 bpm
- dobutamine-mediated drop in peripheral resistance ([1]; after sildenafil 100 mg oral): not modified
- diastolic changes induced by dobutamine ([1]; compared to placebo): did not significantly alter diastolic changes induced by dobutamine
- A velocity, D2 − B2 [1, 3]: 11 ± 7 cm/s
- E velocity, D2 − B2 [1, 3]: 12 ± 11 cm/s
- E′ velocity, D2 − B2 [1, 3]: 1.5 ± 2.4 cm/s
- IVRT, D2 − B2 [1, 3]: −20 ± 13
- A velocity, Δ(B2 − B1) [1, 4]: -3 ± 8 cm/s
- Diastolic Blood Pressure, Δ(B2 − B1) [1, 4]: −6 ± 5 mmHg
- E velocity, Δ(B2 − B1) [1, 4]: -4 ± 12 cm/s
- Ejection Fraction, Δ(B2 − B1) [1, 4]: +6 ± 2
- End Systolic Elastance, Δ(B2 − B1) [1, 4]: +0.4 ± 0.2 mmHg/mL
- E′ velocity, Δ(B2 − B1) [1, 4]: +0 ± 3 cm/sec
- Heart Rate, Δ(B2 − B1) [1, 4]: +0 ± 3 min^−1
- IVRT, Δ(B2 − B1) [1, 4]: +8 ± 12 msec
- Stroke Volume, Δ(B2 − B1) [1, 4]: +5 ± 6 mL
- Systolic Blood Pressure, Δ(B2 − B1) [1, 4]: −6 ± 3 mmHg
- Total Peripheral Resistance, Δ(B2 − B1) [1, 4]: −170 ± 60 dyne * s/cm^5
- reduction of dobutamine-induced ejection fraction change [1, 5]: 66±64%
- reduction of dobutamine-induced end-systolic elastance change [1, 5]: 56±63%
- reduction of dobutamine-induced peak power change [1, 5]: 32±34%
- adverse events ([1]; single 100 mg oral dose, healthy volunteers): no adverse events
- cGMP FRET signal (cGMP): enhanced the FRET signal
- cGMP FRET signal (cGMP; listed as SIL): raised cellular cGMP
- enhancement of PKG-1 activity (PKG-1; basal conditions, inhibitor alone): ~10%
- rise in PKG-1 activity (PKG-1; [6]): 50% and 70%
- rise in PKG-1 activity over ISO alone (PKG-1; [6]): 30%
- ERK1/2 activation (phospho/total) (ERK1/2; 1-week TAC): suppressed
- ERK1/2 activation (phospho/total) (ERK1/2; 9-weeks TAC): no demonstrable effect
- RhoA and Rho-kinase expression and activity (RhoA, ROCK1 and ROCK2): inhibits RhoA, Rho-Kinase1 (ROCK1) and Rho-Kinase2 protein expression and activity
